We go through five compounds from patent US11453703B2, “Heterotandem bicyclic peptide complexes” (BicycleTX Limited, priority 2018, dated 2022).

The term EC50 denotes the concentration needed to bring the measured effect to its halfway point. High values mean a less potent agent, low ones a more potent agent.

The target of the series is CD137 (Homo sapiens, UniProt Q07011). The experiment in a line: CD137 reporter assay, co-culture with PD-L1 expressing cell line RKO. It is filed as cell-based. The arrangement: host or cells: Jurkat reporter cells. Particulars: tumour target PD-L1, co-culture with RKO, 6 h; for fold induction: read-out: Fold Induction over Background. On the procedure:
Culture medium referred to as R1 media is prepared by adding 1% FBS to RPMI-1640 (component of Promega kit CS196005). Serial dilutions of test articles in R1 are prepared in a sterile 96 well-plate. Use 25 μl per well of test articles or R1 (as a background control) to designated wells in white cell culture plate. Tumour cells* are harvested and resuspended at a concentration of 400,000 cells/mL in R1 media. Twenty five (25) μL/well tumour cells are used in white cell culture plate. Jurkat cells (Promega kit CS196005, 0.5 mL) are thawed in the water bath and then added to 5 ml pre-warmed R1 medium. Twenty five (25) μL/well Jurkat cells are used in white cell culture plate. Incubate the cells and test articles for 6h at 37° C., 5% CO2. At the end of 6 h, add 75 μl/well Bio-Glo™ (Promega) and incubate for 10 min before reading luminescence in a plate reader (Clariostar, BMG). The fold change relative to cells (Jurkat cells+Cell line used in co-culture) is calculated and plotted in GraphPad Prism as log(agonist) vs response to determine EC50 (nM) and Fold Induction over background (Max)

Chain of CD137 (Q07011 24-255): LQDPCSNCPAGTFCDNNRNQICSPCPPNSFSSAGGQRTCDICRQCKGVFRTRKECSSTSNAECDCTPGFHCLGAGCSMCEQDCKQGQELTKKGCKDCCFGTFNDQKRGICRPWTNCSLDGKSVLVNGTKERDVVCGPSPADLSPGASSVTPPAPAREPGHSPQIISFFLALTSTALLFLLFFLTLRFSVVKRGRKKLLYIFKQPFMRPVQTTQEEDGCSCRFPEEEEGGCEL

Consider `CCCC[C@@H]1NC(=O)[C@H](Cc2ccc(O)cc2)NC(=O)[C@@H]2CCCN2C(=O)[C@H](CC(=O)O)NC(=O)[C@H](C)NC(=O)[C@H](Cc2ccccc2)NC(=O)[C@@H]2CSCCC(=O)N3CN(CN(C3)C(=O)CCSC[C@@H](C(=O)N[C@@H](C)C(N)=O)NC1=O)C(=O)CCSC[C@H](NC(C)=O)C(=O)N[C@@H](CC(C)(C)C)C(=O)N1CCC[C@H]1C(=O)N[C@@H](CCC(=O)O)C(=O)N[C@H](CCCCNC(=O)Cn1cc(CCC(=O)NCCCC[C@@H]3NC(=O)[C@H](CCC(N)=O)NC(=O)[C@@H]4CSCCC(=O)N5CN(CN(C5)C(=O)CCSC[C@@H](C(=O)N5CCC[C@H]5C(=O)N[C@@H](CO)C(=O)N[C@@H](Cc5c[nH]cn5)C(N)=O)NC(=O)[C@H](CC(C)C)NC(=O)[C@H](Cc5c[nH]cn5)NC(=O)[C@H](CC(C)C)NC3=O)C(=O)CCSC[C@H](NC(=O)[C@H](CCCCN)NC(=O)[C@H](CC(=O)O)NC(=O)[C@H](CO)NC(C)=O)C(=O)N[C@@H](CO)C(=O)N[C@@H](C)C(=O)NCC(=O)N[C@@H](Cc3c[nH]c5ccccc35)C(=O)N[C@@H](CC(C)C)C(=O)N[C@@H]([C@@H](C)O)C(=O)N[C@@H](CCSC)C(=O)N4)nn1)C(=O)N1CCC[C@H]1C(=O)N[C@@H](Cc1ccc(O)cc1)C(=O)N2` [BCY11377], for which the “Fold Induction over Background” value is 6 fold. On to `CCCC[C@@H]1NC(=O)[C@H](Cc2ccc(O)cc2)NC(=O)[C@@H]2CCCN2C(=O)[C@H](CC(=O)O)NC(=O)[C@H](C)NC(=O)[C@H](Cc2ccccc2)NC(=O)[C@@H]2CSCCC(=O)N3CN(CN(C3)C(=O)CCSC[C@@H](C(=O)N[C@@H](CNC(=O)Cn3cc(CCC(=O)NCCCC[C@@H]4NC(=O)[C@H](CCC(N)=O)NC(=O)[C@@H]5CSCCC(=O)N6CN(CN(C6)C(=O)CCSC[C@@H](C(=O)N6CCC[C@H]6C(=O)N[C@@H](CO)C(=O)N[C@@H](Cc6c[nH]cn6)C(N)=O)NC(=O)[C@H](CC(C)C)NC(=O)[C@H](Cc6c[nH]cn6)NC(=O)[C@H](CC(C)C)NC4=O)C(=O)CCSC[C@H](NC(=O)[C@H](CCCCN)NC(=O)[C@H](CC(=O)O)NC(=O)[C@H](CO)NC(C)=O)C(=O)N[C@@H](CO)C(=O)N[C@@H](C)C(=O)NCC(=O)N[C@@H](Cc4c[nH]c6ccccc46)C(=O)N[C@@H](CC(C)C)C(=O)N[C@@H]([C@@H](C)O)C(=O)N[C@@H](CCSC)C(=O)N5)nn3)C(N)=O)NC1=O)C(=O)CCSC[C@H](NC(C)=O)C(=O)N[C@@H](CC(C)(C)C)C(=O)N1CCC[C@H]1C(=O)N[C@@H](CCC(=O)O)C(=O)N[C@H](C)C(=O)N1CCC[C@H]1C(=O)N[C@@H](Cc1ccc(O)cc1)C(=O)N2` [BCY11378], for which the concentration giving a half-maximal response (EC50) is 0.08 µM and the “Fold Induction over Background” value is 3 fold. For `CCCC[C@@H]1NC(=O)[C@H](Cc2ccc(O)cc2)NC(=O)[C@@H]2CCCN2C(=O)[C@H](CC(=O)O)NC(=O)[C@H](C)NC(=O)[C@H](Cc2ccccc2)NC(=O)[C@@H]2CSCCC(=O)N3CN(CN(C3)C(=O)CCSC[C@@H](C(=O)N[C@@H](C)C(N)=O)NC1=O)C(=O)CCSC[C@H](NC(C)=O)C(=O)N[C@@H](CC(C)(C)C)C(=O)N1CCC[C@H]1C(=O)N[C@@H](CCCCNC(=O)CCOCCOCCOCCOCCOCCn1cc(CCC(=O)NCCCC[C@@H]3NC(=O)[C@H](CCC(N)=O)NC(=O)[C@@H]4CSCCC(=O)N5CN(CN(C5)C(=O)CCSC[C@@H](C(=O)N5CCC[C@H]5C(=O)N[C@@H](CO)C(=O)N[C@@H](Cc5c[nH]cn5)C(N)=O)NC(=O)[C@H](CC(C)C)NC(=O)[C@H](Cc5c[nH]cn5)NC(=O)[C@H](CC(C)C)NC3=O)C(=O)CCSC[C@H](NC(=O)[C@H](CCCCN)NC(=O)[C@H](CC(=O)O)NC(=O)[C@H](CO)NC(C)=O)C(=O)N[C@@H](CO)C(=O)N[C@@H](C)C(=O)NCC(=O)N[C@@H](Cc3c[nH]c5ccccc35)C(=O)N[C@@H](CC(C)C)C(=O)N[C@@H]([C@@H](C)O)C(=O)N[C@@H](CCSC)C(=O)N4)nn1)C(=O)N[C@H](C)C(=O)N1CCC[C@H]1C(=O)N[C@@H](Cc1ccc(O)cc1)C(=O)N2` [BCY11379], the fold induction was determined as 6. For the compound `CCCC[C@@H]1NC(=O)[C@H](Cc2ccc(O)cc2)NC(=O)[C@@H]2CCCN2C(=O)[C@H](CC(=O)O)NC(=O)[C@H](C)NC(=O)[C@H](Cc2ccccc2)NC(=O)[C@@H]2CSCCC(=O)N3CN(CN(C3)C(=O)CCSC[C@@H](C(=O)N[C@@H](C)C(N)=O)NC1=O)C(=O)CCSC[C@H](NC(C)=O)C(=O)N[C@@H](CC(C)(C)C)C(=O)N1CCC[C@H]1C(=O)N[C@@H](CCC(=O)O)C(=O)N[C@H](CCCCNC(=O)CCOCCOCCOCCOCCOCCn1cc(CCC(=O)NCCCC[C@@H]3NC(=O)[C@H](CCC(N)=O)NC(=O)[C@@H]4CSCCC(=O)N5CN(CN(C5)C(=O)CCSC[C@@H](C(=O)N5CCC[C@H]5C(=O)N[C@@H](CO)C(=O)N[C@@H](Cc5c[nH]cn5)C(N)=O)NC(=O)[C@H](CC(C)C)NC(=O)[C@H](Cc5c[nH]cn5)NC(=O)[C@H](CC(C)C)NC3=O)C(=O)CCSC[C@H](NC(=O)[C@H](CCCCN)NC(=O)[C@H](CC(=O)O)NC(=O)[C@H](CO)NC(C)=O)C(=O)N[C@@H](CO)C(=O)N[C@@H](C)C(=O)NCC(=O)N[C@@H](Cc3c[nH]c5ccccc35)C(=O)N[C@@H](CC(C)C)C(=O)N[C@@H]([C@@H](C)O)C(=O)N[C@@H](CCSC)C(=O)N4)nn1)C(=O)N1CCC[C@H]1C(=O)N[C@@H](Cc1ccc(O)cc1)C(=O)N2` [BCY11380], the “Fold Induction over Background” value is given as 7 fold. For `CCCC[C@@H]1NC(=O)[C@H](Cc2ccc(O)cc2)NC(=O)[C@@H]2CCCN2C(=O)[C@H](CC(=O)O)NC(=O)[C@H](C)NC(=O)[C@H](Cc2ccccc2)NC(=O)[C@@H]2CSCCC(=O)N3CN(CN(C3)C(=O)CCSC[C@@H](C(=O)N[C@@H](CNC(=O)CCOCCOCCOCCOCCOCCn3cc(CCC(=O)NCCCC[C@@H]4NC(=O)[C@H](CCC(N)=O)NC(=O)[C@@H]5CSCCC(=O)N6CN(CN(C6)C(=O)CCSC[C@@H](C(=O)N6CCC[C@H]6C(=O)N[C@@H](CO)C(=O)N[C@@H](Cc6c[nH]cn6)C(N)=O)NC(=O)[C@H](CC(C)C)NC(=O)[C@H](Cc6c[nH]cn6)NC(=O)[C@H](CC(C)C)NC4=O)C(=O)CCSC[C@H](NC(=O)[C@H](CCCCN)NC(=O)[C@H](CC(=O)O)NC(=O)[C@H](CO)NC(C)=O)C(=O)N[C@@H](CO)C(=O)N[C@@H](C)C(=O)NCC(=O)N[C@@H](Cc4c[nH]c6ccccc46)C(=O)N[C@@H](CC(C)C)C(=O)N[C@@H]([C@@H](C)O)C(=O)N[C@@H](CCSC)C(=O)N5)nn3)C(N)=O)NC1=O)C(=O)CCSC[C@H](NC(C)=O)C(=O)N[C@@H](CC(C)(C)C)C(=O)N1CCC[C@H]1C(=O)N[C@@H](CCC(=O)O)C(=O)N[C@H](C)C(=O)N1CCC[C@H]1C(=O)N[C@@H](Cc1ccc(O)cc1)C(=O)N2` [BCY11381], the fold induction stood at 7.
